Assay in all cases: In vitro antifungal activity, microbroth dilution MIC
What all share (type): cell-based
On the technique in general: Broth dilution looks for growth in wells or tubes with falling amounts of substance.

In experiment [1] the test system is Cryptococcus neoformans A. 34144. As to conditions: Cry. neoformans A. 34144, RPMI-1640, 35° C., 4 to 48 hours. On the procedure:
(§1) In vitro antifungal activities of the inventive antifungal compounds were evaluated using the test strains shown in Table VIII by the following microbroth dilution method which is a modified version of the procedure recommended by National Committee for Clinical Laboratory Standards(see National Committee for Clinical Laboratory Standards, 1992, Reference methods for broth dilution antifungal susceptibility testing of yeasts, Proposed standard M27-P, National Committee for clinical laboratory standards, Villanova, Pa; and National Committee for Clinical Laboratory Standards, 1995, Reference methods for broth dilution antifungal susceptibility testing of yeasts. Tentative standard M27-T, National Committee for clinical laboratory standards, Villanova, Pa).
(§2) Sabourad Dextrose Agar(Difco) was used as a culture medium, and RPMI-1640 broth(Sigma. Co. w/L-glutamine, wo/NaHCO3)(0.165 M MOPS, pH 7.0), as a dilution medium.
(§3) Each of the test strains were subcultured in Sabourad Dextrose Agar medium twice and a stain sample was taken from prominent colonies and suspended in sterile physiological saline solution in a cap tube. The turbidity of the suspension was adjusted to that of the Mcfarland 0.5 standard sample(approximately 10^6 CFU/ml). Then the suspension was diluted 500-fold with sterile RPMI-1640 liquid medium to 2×10^3 CFU/ml.
(§4) Each of the test compounds(the compounds obtained in Examples 1 to 150 and comparative compounds, i.e., fluconazole(FCZ) and itraconazole (ICZ)), was dissolved in DMSO to give a stock solution having a concentration of 4000 μg/ml and the stock solution was successively diluted to obtain test solutions having test compound concentrations of 200, 100, 50, 25, 12.5, 6.25, 3.13, 1.56, 0.78, 0.39, 0.20 and 0.10 μg/ml, respectively.
(§5) 0.1 ml portion of the test solutions were added to the wells of a sterile 96 well plate. Then, 0.1 ml portion of each of the test strain solutions were added successively to the wells and the plate was incubated at 35° C. for 4 to 48 hours.
(§6) Minimal inhibitory concentration(MIC) of each compound was defined as the concentration of the test compound where no growth of the strain could be observed.

Experiment [2] concerns Trichophyton mentagrophytes A. 9129. The note with it: T. mentagrophytes A. 9129, RPMI-1640, 35° C., 4 to 48 hours. As to the method: as §1, §2, §3, §4, §5, §6
In experiment [3] the test system is Torulopsis glabrata B. 16205. As to conditions: T. glabrata B. 16205, RPMI-1640, 35° C., 4 to 48 hours. On the procedure:
as §1, §2, §3, §4, §5, §6

Experiment [4] deals with Candida pseudotropicalis K. 11658. As to conditions: C. pseudotropicalis K. 11658, RPMI-1640, 35° C., 4 to 48 hours. As to the method:
as §1, §2, §3, §4, §5, §6

For experiment [5], the system named is Trichophyton mentagrophytes B. 32663. As to conditions: T. mentagrophytes B. 32663, RPMI-1640, 35° C., 4 to 48 hours. As to the method: as §1, §2, §3, §4, §5, §6
Experiment [6] has as its system Cryptococcus neoformans IFM. 40092. The note with it: Cry. neoformans IFM. 40092, RPMI-1640, 35° C., 4 to 48 hours. On the procedure: as §1, §2, §3, §4, §5, §6
Experiment [7] concerns Aspergillus furnigatus B. 19119. As to conditions: A furnigatus B. 19119, RPMI-1640, 35° C., 4 to 48 hours. As to the method: as §1, §2, §3, §4, §5, §6
In experiment [8] the test system is Candida albicans A. 10231. The note with it: C. albicans A. 10231, RPMI-1640, 35° C., 4 to 48 hours. As to the method:
as §1, §2, §3, §4, §5, §6

The test system of experiment [9] is Candida parapsitosis A. 7330. As to conditions: C. parapsitosis A. 7330, RPMI-1640, 35° C., 4 to 48 hours. As to the method: as §1, §2, §3, §4, §5, §6
Experiment [10] relates to Candida albicans IFO. 1385. The note with it: C. albicans IFO. 1385, RPMI-1640, 35° C., 4 to 48 hours. As to the method:
as §1, §2, §3, §4, §5, §6

For another experiment, the system named is Candida albicans C1-2. The note with it: C. albicans C1-2, RPMI-1640, 35° C., 4 to 48 hours. As to the method: as §1, §2, §3, §4, §5, §6
The subject of experiment [11] is Candida tropicalis A. 13803. The note with it: C. tropicalis A. 13803, RPMI-1640, 35° C., 4 to 48 hours. On the procedure: as §1, §2, §3, §4, §5, §6
Experiment [12] has as its system Cryptococcus neoformans B. 42419. As to conditions: Cry. neoformans B. 42419, RPMI-1640, 35° C., 4 to 48 hours. As to the method:
as §1, §2, §3, §4, §5, §6

The test system of experiment [13] is Aspergillus niger A. 16404. The note with it: A. niger A. 16404, RPMI-1640, 35° C., 4 to 48 hours. On the procedure: as §1, §2, §3, §4, §5, §6
Another experiment has as its system Candida krusei K. 11655. The note with it: C. krusei K. 11655, RPMI-1640, 35° C., 4 to 48 hours. On the procedure:
as §1, §2, §3, §4, §5, §6

Structures are written as SMILES. Bounds are passed on as bounds.

With `FC(OCC1COC(Cn2ccnc2)(c2ccc(Cl)cc2Cl)O1)=C(c1cccc(F)c1)C(F)(F)F` (mixture of isomers) [Ex. 32], the “Minimal inhibitory concentration (MIC)” value in experiment [1] came out at 0.78 µg/mL; in [2], 12.5 µg/mL; in experiment [3], 12.5 µg/mL; in [4], 100 µg/mL; in experiment [5] it was 6.25 µg/mL; in [6], 0.39 µg/mL. Besides, the “Minimal inhibitory concentration (MIC)” value in experiment [7] was 50.0 µg/mL; in [8], 6.25 µg/mL; in experiment [9] it was over 100 µg/mL; in [10], 0.78 µg/mL; in the experiment with Candida albicans C1-2 it was 6.25 µg/mL; in experiment [11], 25.0 µg/mL. Also, the entries for the “Minimal inhibitory concentration (MIC)” value (in experiment [12]; in experiment [13]; in the experiment on Candida krusei K. 11655) were 1.56 µg/mL, 100 µg/mL and over 100 µg/mL, respectively.

For `FC(OCC1COC(Cn2ccnc2)(c2ccc(Cl)cc2Cl)O1)=C(c1ccc(F)cc1)C(F)(F)F` (mixture of isomers) [Ex. 33], the “Minimal inhibitory concentration (MIC)” value in [1] stood at 1.56 µg/mL; in experiment [2] it was 25.0 µg/mL; in experiment [3] it was 25.0 µg/mL; in [4], 100 µg/mL; in experiment [5] it was 12.5 µg/mL; in experiment [6], 0.78 µg/mL. Further, the “Minimal inhibitory concentration (MIC)” value is 100 µg/mL in [7]; 6.25 µg/mL in [8]; over 100 µg/mL in experiment [9]; 1.56 µg/mL in [10]; 12.5 µg/mL with Candida albicans C1-2; 50.0 µg/mL in experiment [11]. The “Minimal inhibitory concentration (MIC)” value in experiment [12] was found to be 1.56 µg/mL; in experiment [13], 100 µg/mL; with Candida krusei K. 11655, 100 µg/mL.

For `FC(OCC1COC(Cn2ccnc2)(c2ccc(Cl)cc2Cl)O1)=C(c1cc(Cl)cc(Cl)c1)C(F)(F)F` (mixture of isomers) [Ex. 34], the “Minimal inhibitory concentration (MIC)” value stood at 1.56 µg/mL in [1]; 1.56 µg/mL in [2]; 6.25 µg/mL in [3]; 12.5 µg/mL in [4]; 0.78 µg/mL in experiment [5]; 0.39 µg/mL in experiment [6]. Further, the “Minimal inhibitory concentration (MIC)” value came to 3.13 µg/mL in experiment [7]; 6.25 µg/mL in experiment [8]; 12.5 µg/mL in experiment [9]; 0.39 µg/mL in experiment [10]; 6.25 µg/mL in the experiment on Candida albicans C1-2; 12.5 µg/mL in experiment [11]. Further, the “Minimal inhibitory concentration (MIC)” value in experiment [12] was found to be 1.56 µg/mL; in experiment [13], 6.25 µg/mL; in the experiment with Candida krusei K. 11655, 25.0 µg/mL.
